Measurements taken from patent US4757151A, “2-substituted-[2-substituted-amino]-N-arylalkyl-3-[indol-3-yl]” (Warner-Lambert Company, priority 1986, dated 1988).

Legend:
[1] = percent repression of food intake (appetite suppression) in laboratory rats trained to a six hour feeding period; assay type: in vivo, adult male Wistar rats
Excerpt: In this screen, adult male Wistar rats weighing between 250-400 g were housed individually and trained to consume their daily intake of food within a six hour period. Food was then withdrawn for the remaining eighteen hour period of each day. Drinking water was available at all times, and the animals were maintained on a twelve hour light/twelve hour dark cycle. This training regimen was maintained for a seven-day period. Powdered, rather than pelletized, food was used to minimize spillage and to facilitate measurement of food intake.
On each test day, a group of twelve rats was used, six receiving a single dose of test compound and six serving as a control group. Immediately after dosing, the rats were allowed access to food. Food intake was then monitored over the next six-hour period. The food hoppers were weighed at intervals of 30 minutes, and at 1, 2, 3, 4, 5, and 6 hours after administration of the test compound. The percent repression of food intake of laboratory rats under these conditions for the prior art octapeptide, CCK26-33, and for several compounds of the present invention appear in Table 2.

CCK receptor = molecular target: T1, CCK receptor (Mus musculus, UniProt P56481); test: displacement of tritiated pentagastrin binding to mouse cerebral cortical membranes (CCK receptor binding screening test); design: species or system male CFLP mice; details: tritiated pentagastrin (2 nM) displacement, Cheng-Prusoff
T1 construct: the cerebral cortices from male CFLP mice weighing between 30-40 g were dissected on ice, weighed and homogenized; from tissue; host or cells: cerebral cortex membranes of male CFLP mice
T1 sequence (P56481 1-453): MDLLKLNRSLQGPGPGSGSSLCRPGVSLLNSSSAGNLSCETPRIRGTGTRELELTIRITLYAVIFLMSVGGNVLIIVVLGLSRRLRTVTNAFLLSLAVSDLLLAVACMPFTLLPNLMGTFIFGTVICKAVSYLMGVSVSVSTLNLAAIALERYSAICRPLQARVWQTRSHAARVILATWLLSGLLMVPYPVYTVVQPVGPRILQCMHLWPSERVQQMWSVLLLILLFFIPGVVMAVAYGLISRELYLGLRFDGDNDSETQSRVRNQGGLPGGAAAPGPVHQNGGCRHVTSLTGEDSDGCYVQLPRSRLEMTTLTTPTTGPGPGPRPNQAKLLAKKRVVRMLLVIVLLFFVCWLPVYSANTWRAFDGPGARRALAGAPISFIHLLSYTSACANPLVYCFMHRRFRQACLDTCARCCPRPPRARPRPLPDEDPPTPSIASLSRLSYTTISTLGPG
Description: The biological activities of compounds of this invention were evaluated employing an initial screening test which rapidly and accurately measured the binding of the tested compound to known CCK receptor cites. […] (See Hays et al., Neuropeptides, 1: 53-62 (1980); and Sauter et al., Science, 208: 1155-1156 (1980).
In the screening test, the cerebral cortices from male CFLP mice weighing between 30-40 g were dissected on ice, weighed and homogenized in 10 volumes of 50 mM Tris-HCl buffer (pH 7.4 at 0°-4° C.). The resulting suspension was centrifuged, the supernate was discarded, and the pellet was washed by resuspension in Tris-HCl buffer followed by recentrifugation.
The final pellet was resuspended in 10 volumes of 10 mM Hepes buffer (pH 7.2 at 23° C.) containing 130 mM NaCl, 4.7 mM KCl, 1 mM EDTA, 5 mg/ml bovine albumin, and bacitracin (0.25 mg/ml). […]
Following incubation, radioactivity bound to membranes was separated from that free in solution by rapid filtration through Whatman GF/B filters and washed three times with 4-ml portions of ice-cold Tris-HCl buffer. Filters from samples incubated with tritiated pentagastrin were placed in polyethylene vials with 8 ml of scintillation cocktail, and the radioactivity was estimated by scintillation spectrometry (efficiency 47-52%). […]
Saturation curves for specific tritiated pentagastrin binding to mouse cortical membranes were analyzed by statisitcal methods to provide estimates for the maximum number of binding sites (Bmax) and the equilibrium dissociation constant (Kd).
In the displacement experiements, inhibition curves were analyzed by logit-log plots to provide estimates of the IC50 and nH (apparent Hill coefficient) values. […]
The inhibition constant, Ki, of the test compound was then calculated according to the Cheng-Prusoff equation: [formula] where [L] is the molar concentration of radiolabel and Kd is the equilibrium dissociation constant.

| Compound | Percent Repression of Food Intake After 0.5 Hours ([1]; I.P. 300 mg/kg) [%] | Percent Repression of Food Intake After 1.0 Hours ([1]; I.P. 300 mg/kg) [%] | Percent Repression of Food Intake After 3.0 Hours ([1]; I.P. 300 mg/kg) [%] | Percent Repression of Food Intake After 6.0 Hours ([1]; I.P. 300 mg/kg) [%] | Ki (CCK receptor) [µM] | Percent Repression of Food Intake After 0.5 Hours ([1]; I.P. 100 mg/kg) [%] | Percent Repression of Food Intake After 1.0 Hours ([1]; I.P. 100 mg/kg) [%] | Percent Repression of Food Intake After 3.0 Hours ([1]; I.P. 100 mg/kg) [%] | Percent Repression of Food Intake After 6.0 Hours ([1]; I.P. 100 mg/kg) [%] | also measured |
| --- | --- | --- | --- | --- | --- | --- | --- | --- | --- | --- |
| CC(Cc1c[nH]c2ccccc12)(NC(=O)OC(C)(C)C(Cl)(Cl)Cl)C(=O)NCCc1ccccn1 (racemic) [Example 19, (±)-[1-(1H-Indol-3-ylmethyl)-1-methyl-2-oxo-2-[[2-(2-pyridinyl)ethyl]amino]ethyl]carbamic acid, 2,2,2-trichloro-1,1-dimethylethyl ester] | 35 | 49 | 60 | 55 |  |  |  |  |  | Percent Repression of Food Intake After 0.5 Hours ([1]; P.O. 300 mg/kg): 78%; Percent Repression of Food Intake After 1.0 Hours ([1]; P.O. 300 mg/kg): 68%; Percent Repression of Food Intake After 3.0 Hours ([1]; P.O. 300 mg/kg): 52%; Percent Repression of Food Intake After 6.0 Hours ([1]; P.O. 300 mg/kg): 52% |
| CC(C)(C)OC(=O)N[C@@](C)(Cc1c[nH]c2ccccc12)C(=O)N[C@@H](Cc1ccccc1)C(N)=O (single isomer, unassigned) [Example 2, N-[(1,1-Dimethylethoxy)carbonyl]-α-methyltryptophyl-L-phenylalaninamide] |  |  |  |  | 6 | 66 | 54 | 1 | 0 | Percent Repression of Food Intake After 0.5 Hours ([1]; I.P. 4 mg/kg): 24%; Percent Repression of Food Intake After 1.0 Hours ([1]; I.P. 4 mg/kg): 13%; Percent Repression of Food Intake After 3.0 Hours ([1]; I.P. 4 mg/kg): 19%; Percent Repression of Food Intake After 6.0 Hours ([1]; I.P. 4 mg/kg): 14% |
| CCC(C)(C)OC(=O)NC(C)(Cc1c[nH]c2ccccc12)C(=O)NCCc1ccccc1 (stereo not shown) [Example 6, [1-(1H-Indol-3-ylmethyl)-1-methyl-2-oxo-2-[(2-phenylethyl)amino]ethyl]-carbamic acid, 1,1-dimethylpropyl ester] |  |  |  |  | 6.5 | 8 | 22 | 36 | 13 |  |
| CCC(C)(C)OC(=O)NC(C)(Cc1c[nH]c2ccccc12)C(=O)NC(CO)Cc1ccccc1 (stereo not shown) [Example 7, [2-[[1-(Hydroxymethyl)-2-phenylethyl]-amino]-1-(1H-indol-3-ylmethyl)-1-methyl-2-oxoethyl]-carbamic acid, 1,1-dimethylpropyl ester] | 64 | 45 | 23 | 11 | 6.8 |  |  |  |  |  |
| CCK26-33: prior art octapeptide, carboxyl-terminus fragment of cholecystokinin [reference compound] |  |  |  |  |  |  |  |  |  | Percent Repression of Food Intake After 0.5 Hours ([1]; I.P. 5 mg/kg): 50%; Percent Repression of Food Intake After 1.0 Hours ([1]; I.P. 5 mg/kg): 40%; Percent Repression of Food Intake After 3.0 Hours ([1]; I.P. 5 mg/kg): 3%; Percent Repression of Food Intake After 6.0 Hours ([1]; I.P. 5 mg/kg): 12% |
